From PubChem BioAssay (NCI)
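Briefly, cells in 96-well plates were exposed to five compound concentrations for 48 h, and endpoints were estimated by linear interpolation. Abbreviation: GI50, concentration required for 50% inhibition of growth. TGI denotes the concentration required for complete inhibition of growth.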

How the values were obtained:
Assay in all cases: NCI tumour cell line growth inhibition, 48 h
M14 melanoma = tested on: M14 melanoma
HL-60(TB) leukemia = tested on: HL-60(TB) leukemia
786-0 renal = tested on: 786-0 renal
IGROV1 ovarian = tested on: IGROV1 ovarian
UO-31 renal = tested on: UO-31 renal
UACC-257 melanoma = tested on: UACC-257 melanoma
NCI-H460 lung = tested on: NCI-H460 lung
SK-MEL-28 melanoma = tested on: SK-MEL-28 melanoma
COLO 205 colon = tested on: COLO 205 colon
RPMI-8226 leukemia = tested on: RPMI-8226 leukemia

In the case of CCN(CC)CCCC(C)Nc1c2ccc(C)cc2nc2ccc(OC)cc12 (stereo not given), the GI50 (M14 melanoma) is reported as 1.58 µM, the TGI (M14 melanoma) is reported as 3.18 µM and the GI50 (HL-60(TB) leukemia) is reported as 2.71 µM. The TGI (HL-60(TB) leukemia) was 9.44 µM, the GI50 (786-0 renal) was 2.05 µM and the TGI (786-0 renal) was 8.58 µM. The GI50 (IGROV1 ovarian) was 0.514 µM, the TGI (IGROV1 ovarian) was 3.12 µM and the GI50 (UO-31 renal) was 1.05 µM. The TGI (UO-31 renal) was 2.36 µM, the GI50 (UACC-257 melanoma) was 1.62 µM and the TGI (UACC-257 melanoma) was 3.05 µM. For the same compound, the GI50 (NCI-H460 lung) was 1.2 µM, the TGI (NCI-H460 lung) was 3.74 µM and the GI50 (SK-MEL-28 melanoma) was 1.87 µM. For the same compound, the TGI (SK-MEL-28 melanoma) was 3.35 µM, the GI50 (COLO 205 colon) was 1.21 µM and the TGI (COLO 205 colon) was 2.96 µM. For the same compound, the GI50 (RPMI-8226 leukemia) was 1.75 µM and the TGI (RPMI-8226 leukemia) was 5.05 µM.
For C[C@]12CC[C@@H]3c4ccc(O)cc4C(O)C[C@H]3[C@@H]1CCC2=O (stereo not given in full), the GI50 (M14 melanoma) was greater than 100 µM, the TGI (M14 melanoma) was greater than 100 µM and the GI50 (HL-60(TB) leukemia) was greater than 100 µM. For the same compound, the TGI (HL-60(TB) leukemia) was greater than 100 µM, the GI50 (786-0 renal) was greater than 100 µM and the TGI (786-0 renal) was greater than 100 µM. For the same compound, the GI50 (IGROV1 ovarian) was 58 µM, the TGI (IGROV1 ovarian) was greater than 100 µM and the GI50 (UO-31 renal) was 53.8 µM. For the same compound, the TGI (UO-31 renal) was greater than 100 µM, the GI50 (UACC-257 melanoma) was greater than 100 µM and the TGI (UACC-257 melanoma) was greater than 100 µM. The GI50 (NCI-H460 lung) was greater than 100 µM, the TGI (NCI-H460 lung) was greater than 100 µM and the GI50 (SK-MEL-28 melanoma) was greater than 100 µM. The TGI (SK-MEL-28 melanoma) was greater than 100 µM, the GI50 (COLO 205 colon) was greater than 100 µM and the TGI (COLO 205 colon) was greater than 100 µM. For the same compound, the GI50 (RPMI-8226 leukemia) was 60.6 µM and the TGI (RPMI-8226 leukemia) was greater than 100 µM.
Cc1cc(-c2nnc3n2CCCCC3)c(C)n1-c1ccc(Cl)c(Cl)c1 showed a GI50 (M14 melanoma) of 14.9 µM, a TGI (M14 melanoma) of 33.5 µM and a GI50 (HL-60(TB) leukemia) of 20.6 µM. It also gave a TGI (HL-60(TB) leukemia) of 61.2 µM, a GI50 (786-0 renal) of 22.9 µM and a TGI (786-0 renal) of 56.7 µM. The GI50 (IGROV1 ovarian) was 17.9 µM, the TGI (IGROV1 ovarian) was 42.7 µM and the GI50 (UO-31 renal) was 12.6 µM. For the same compound, the TGI (UO-31 renal) was 36.7 µM, the GI50 (UACC-257 melanoma) was 12.7 µM and the TGI (UACC-257 melanoma) was 32.3 µM. It also gave a GI50 (NCI-H460 lung) of 17.4 µM, a TGI (NCI-H460 lung) of 45.7 µM and a GI50 (SK-MEL-28 melanoma) of 10.7 µM. It also gave a TGI (SK-MEL-28 melanoma) of 23.2 µM, a GI50 (COLO 205 colon) of 10.6 µM and a TGI (COLO 205 colon) of 25.1 µM. The GI50 (RPMI-8226 leukemia) was 9.53 µM and the TGI (RPMI-8226 leukemia) was 39.9 µM.
Work on O=Cc1ccc(-c2cccs2)s1 yielded a TGI (M14 melanoma) greater than 100 µM, a TGI (HL-60(TB) leukemia) greater than 68.1 µM and a TGI (786-0 renal) greater than 100 µM. It also gave a TGI (IGROV1 ovarian) of 47.4 µM, a TGI (UO-31 renal) greater than 100 µM and a TGI (UACC-257 melanoma) of 15.1 µM. It also gave a TGI (NCI-H460 lung) greater than 92.4 µM, a TGI (SK-MEL-28 melanoma) greater than 100 µM and a TGI (COLO 205 colon) of 54.8 µM. For the same compound, the TGI (RPMI-8226 leukemia) was greater than 100 µM.
For Cc1ccc(NC(=O)Cn2c(Br)nc3c2c(=O)n(C)c(=O)n3C)cc1, the GI50 (M14 melanoma) was 5.98 µM, the TGI (M14 melanoma) was 19.2 µM and the GI50 (HL-60(TB) leukemia) was greater than 100 µM. For the same compound, the TGI (HL-60(TB) leukemia) was greater than 100 µM, the GI50 (786-0 renal) was 2.32 µM and the TGI (786-0 renal) was 5.68 µM. It also gave a GI50 (IGROV1 ovarian) of 5 µM, a TGI (IGROV1 ovarian) of 17.4 µM and a GI50 (UO-31 renal) of 2.13 µM. The TGI (UO-31 renal) was 6 µM, the GI50 (UACC-257 melanoma) was 13.9 µM and the TGI (UACC-257 melanoma) was 28.8 µM. The GI50 (NCI-H460 lung) was 3.39 µM, the TGI (NCI-H460 lung) was 11.6 µM and the GI50 (SK-MEL-28 melanoma) was 11.4 µM. For the same compound, the TGI (SK-MEL-28 melanoma) was 23.5 µM, the GI50 (COLO 205 colon) was 5.57 µM and the TGI (COLO 205 colon) was 19.3 µM. For the same compound, the GI50 (RPMI-8226 leukemia) was 3.25 µM and the TGI (RPMI-8226 leukemia) was 19.4 µM.
In the case of FCc1ncc(-c2ccc(C(F)(F)F)cc2)c(NC2CCCCCC2)n1, the GI50 (M14 melanoma) is reported as greater than 10 µM, the TGI (M14 melanoma) is reported as greater than 10 µM and the GI50 (HL-60(TB) leukemia) is reported as greater than 10 µM. It also gave a TGI (HL-60(TB) leukemia) greater than 10 µM, a GI50 (786-0 renal) greater than 10 µM and a TGI (786-0 renal) greater than 10 µM. For the same compound, the GI50 (IGROV1 ovarian) was greater than 10 µM, the TGI (IGROV1 ovarian) was greater than 10 µM and the GI50 (UO-31 renal) was greater than 10 µM. It also gave a TGI (UO-31 renal) greater than 10 µM, a GI50 (UACC-257 melanoma) greater than 10 µM and a TGI (UACC-257 melanoma) greater than 10 µM. The GI50 (NCI-H460 lung) was greater than 10 µM, the TGI (NCI-H460 lung) was greater than 10 µM and the GI50 (SK-MEL-28 melanoma) was greater than 10 µM. For the same compound, the TGI (SK-MEL-28 melanoma) was greater than 10 µM, the GI50 (COLO 205 colon) was greater than 10 µM and the TGI (COLO 205 colon) was greater than 10 µM. For the same compound, the GI50 (RPMI-8226 leukemia) was greater than 10 µM and the TGI (RPMI-8226 leukemia) was greater than 10 µM.
